Test results: article doi:10.1101/2020.06.07.139295v2 (biorxiv, 2020)
Residue numbers refer to the chain shown, from its start.

Columns and labels:
TTLL6 (51-502) [1] = target: T1, TTLL6 (51-502) (Mus musculus, UniProt A4Q9E8); assay: [3H]-glutamate transfer to taxol-stabilized brain microtubules, filter assay; format: biochemical
T1 sequence (A4Q9E8 51-502): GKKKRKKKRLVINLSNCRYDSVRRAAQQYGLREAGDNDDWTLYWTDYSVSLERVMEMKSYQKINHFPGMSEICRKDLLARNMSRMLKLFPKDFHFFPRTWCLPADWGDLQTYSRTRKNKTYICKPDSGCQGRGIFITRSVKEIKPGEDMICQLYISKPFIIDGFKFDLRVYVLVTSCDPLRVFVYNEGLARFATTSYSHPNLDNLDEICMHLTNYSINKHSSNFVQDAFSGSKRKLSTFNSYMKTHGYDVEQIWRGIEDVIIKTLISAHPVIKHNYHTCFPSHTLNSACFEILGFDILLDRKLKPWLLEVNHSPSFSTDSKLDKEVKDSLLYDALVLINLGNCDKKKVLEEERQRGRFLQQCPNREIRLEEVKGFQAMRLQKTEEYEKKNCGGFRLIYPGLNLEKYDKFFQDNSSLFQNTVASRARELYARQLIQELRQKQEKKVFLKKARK

TTLL6 (51-502) [2] = target: T2, TTLL6 (51-502) (Mus musculus, UniProt A4Q9E8, C179A/H362I/Q180R); assay: as above; format: biochemical
T2 sequence (A4Q9E8 51-502 C179A/Q180R/H362I): T1 sequence (A4Q9E8 51-502) with C129A, Q130R, H312I

| IC50 (TTLL6 (51-502) [1]) [µM] | IC50 (TTLL6 (51-502) [2]) [µM] | SMILES |
| --- | --- | --- |
| 6.1 | 3.5 ± 0.2 | CCNC(=O)[C@H](CCP(=O)(O)CC(CCC(=O)O)C(=O)O)NC(C)=O (mixture of isomers) [initiation analog] |
| 0.6 ± 0.05 | 5.4 ± 0.8 | CC(=O)NC(CCC(=O)O)P(=O)(O)CC(CCC(=O)O)C(=O)O (mixture of isomers) [α-elongation analog] |
| ~6 | 2.5 ± 0.1 | CC(=O)N[C@@H](CCP(=O)(O)CC(CCC(=O)O)C(=O)O)C(=O)O (mixture of isomers) [γ-elongation analog] |
